In US12662676B2, “Aptamer nucleic acid molecule, and complex and application thereof” (EAST CHINA UNIVERSITY OF SCIENCE AND TECHNOLOGY, priority 2019, dated 2026):

Assay: Pepper-based GTP sensor
Assay type: biochemical
Settings: with III-3, presence vs absence of GTP; linkage 3
Experimental: In order to construct Pepper-based sensors for detecting analytes, the nucleotides in the stem-loop region in the Pepper-1 (SEQ ID No: 2) structure were replaced with the aptamers that can specifically recognize and bind adenosine and guanosine (GTP), respectively. The aptamers Pepper-1 were fused by linkage with different lengths and different nucleotides (FIG. 10A). The RNA sensors were prepared according to the commonly used experimental method (1). The RNA sensors were incubated with III-3 fluorophore, and the fluorescence was measured in the presence or absence of adenosine or GTP using a multifunctional microplate reader.

## GTP sensor: Pepper-1 with stem-loop replaced by GTP aptamer, linkage 3, SEQ ID No:22 (UCCCCAAUCGUGGCGUGUCGUAAGAAGAGCACGUAUACGCAAUAACUGGCGCCGGGA; listed as RNA, chemistry not given here)
  activation fold of GTP sensor: 10 folds
